Where two headings read alike, the source gives them in different places.
Key:
[1] = molecular target: glutamate dehydrogenase (GDH); assay: 2,4-DNPH oxidative deamination assay with GDH; assay type: biochemical, thermophilic bacterium species; conditions: 0.25 μM GDH; for IC50: 5 mM L-glutamate, 2.5 mM NAD^+, brackets 95% confidence interval
Protocol: Next, we selected two reported GDH inhibitors to assess their IC50 values using the 2,4-DNPH α-KG assay. For these experiments, we held glutamate and NAD^+ at saturating concentrations of 5 mM and 2.5 mM, respectively, while varying the concentrations of inhibitors. Hexachlorophene (HCP) is a noncompetitive inhibitor of GDH that binds to the inner core of the GDH hexamer, thereby preventing the conformational changes necessary for catalytic turnover ([60]). […] Conversely, 2-Methyleneglutarate (2-MG) was selected as a nonaromatic, competitive inhibitor of GDH with respect to L-glutamate ([61]).
Lyophilized GDH was resuspended in a solution of 50 mM Tris-base buffer (pH 8.0) and […]. Each oxidative deamination reaction was carried out in a final volume of 0.5 ml. The cofactor mix was prepared with 50 mM Tris-base buffer (pH 8.0), 1 mM EDTA, 5 mM L-glutamate and 2.5 mM NAD^+ and commenced by adding 0.25 μM GDH. The reaction was allowed to proceed at 50 °C for up to 30 min. During the course of the reaction, 50 μl was withdrawn at various time points from the reaction tube and quenched in 50 μl of 10% TCA at predetermined time points and vortexed. The downstream processing steps are identical to those of the 2,4-DNPH α-KG assay.
(§1) Subsequent measurements were performing at time points conforming to those requirements. Initial velocities at each substrate concentration were fit using linear regression to generate Michaelis–Menten titration curves.
(§2) All data were plotted using GraphPad Prism 8.0 and presented as a mean ± standard deviation of three independent biological replicates, unless otherwise stated. For kinetic data, Km was determined by fitting the data to a least squares ordinary fit Michealis–Menten function, while IC50 values were obtained from fitting the data to a three-parameter log(inhibitor) versus response function. Where applicable, two-tailed t tests were performed to determine statistical significance using a p-value of 0.05.

[2] = molecular target: PHD3 (Homo sapiens, UniProt Q9H6Z9); assay: 2,4-DNPH α-KG assay with PHD3
Protocol: (§3) During the course of the reaction, 50 μl was withdrawn at various time points from the reaction tube and quenched in 50 μl of 10% TCA at predetermined time points and vortexed.
as §1, §2

[3] = molecular target: PHD2_181-426 (Homo sapiens, UniProt Q9GZT9); assay: 2,4-DNPH α-KG assay with PHD2
Protocol: as §3, §1, §2

[4] = test system: PHD3; conditions: read-out: Km (app; α-KG), cited from earlier work
[5] = test system: PHD2; conditions: read-out: Km (app; α-KG), cited from earlier work

PHD3 (Homo sapiens, UniProt Q9H6Z9), sequence (Q9H6Z9 whole entry): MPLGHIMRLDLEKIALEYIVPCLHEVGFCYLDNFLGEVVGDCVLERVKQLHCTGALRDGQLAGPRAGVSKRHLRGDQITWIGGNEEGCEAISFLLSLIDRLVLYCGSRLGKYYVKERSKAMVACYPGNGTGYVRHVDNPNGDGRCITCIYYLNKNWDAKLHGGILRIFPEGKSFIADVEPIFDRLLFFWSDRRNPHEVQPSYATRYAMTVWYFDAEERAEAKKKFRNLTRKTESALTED
PHD2_181-426, sequence (Q9GZT9 181-426): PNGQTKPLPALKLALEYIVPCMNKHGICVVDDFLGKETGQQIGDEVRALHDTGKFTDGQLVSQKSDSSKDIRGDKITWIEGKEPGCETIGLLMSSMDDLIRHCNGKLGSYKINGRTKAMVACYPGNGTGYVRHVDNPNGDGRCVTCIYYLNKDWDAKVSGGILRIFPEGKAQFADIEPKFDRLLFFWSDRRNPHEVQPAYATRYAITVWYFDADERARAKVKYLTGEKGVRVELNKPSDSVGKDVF

Q: Which results are given for `C=C(CCC(=O)O)C(=O)O` [2-MG, 2-methyleneglutaric acid, reference compound]?
A: IC50 [1]: 24.9 µM; IC50 ([1]; listed as 2-Methyleneglutarate (2-MG)): 24.9 µM

Q: Which IC50 ([2]; 0.5 mM α-ketoglutarate, 100 μM HIF peptide, 10 μM PHD3, brackets 95% confidence interval) does the source give for `[Cl-].[Cl-].[Co+2]` [CoCl2, cobalt (II) chloride, reference compound] here?
A: 79.3 µM

Q: What about the IC50 [3] of the same molecule?
A: 6.4 µM

Q: With `Oc1c(Cl)cc(Cl)c(Cl)c1Cc1c(O)c(Cl)cc(Cl)c1Cl` [HCP, Hexachlorophene, reference compound] as the molecule, how does the IC50 [1] read?
A: 1.52 µM

Q: Which “kcat for NAD^+” value ([1]; increasing NAD^+, saturating other reagents) does the source give for `NC(=O)c1ccc[n+]([C@@H]2O[C@H](COP(=O)([O-])OP(=O)(O)OC[C@H]3O[C@@H](n4cnc5c(N)ncnc54)[C@H](O)[C@@H]3O)[C@@H](O)[C@H]2O)c1` [NAD^+, nicotinamide adenine dinucleotide] here?
A: 4.2 ± 0.13 s⁻¹

Q: And the Km ([1]; increasing NAD^+, saturating other reagents, read-out: Km for NAD^+)?
A: 517 ± 55.8 µM

Q: For `O=C(O)CNC(=O)C(=O)O` [NOG, N-oxalylglycine], which IC50 [2] is on record?
A: 51.3 µM

Q: Which kcat for glutamate ([1]; increasing L-glutamate, saturating other reagents) does the source give for `N[C@@H](CCC(=O)O)C(=O)O` [glutamate, L-glutamate] here?
A: 4.47 ± 0.067 s⁻¹

Q: What about the Km ([1]; increasing L-glutamate, saturating other reagents, read-out: Km for glutamate) of the same molecule?
A: 746 ± 58.6 µM

Q: Which results are given for `O=C(O)CCC(=O)C(=O)O` [α-ketoglutarate]?
A: Km ([4]; ref Hirsila et al. ([2])): 55 µM; Km ([4]; ref Koivunen et al. ([51])): 12 ± 4 µM; Km ([4]; ref Oehme et al. ([25])): 3 µM; Km ([5]; PHD2, ref Dao et al. ([52])): 0.343 ± 0.028 µM; Km ([5]; PHD2, ref Hirsila et al. ([2])): 60 µM; Km ([5]; PHD2, ref Koivunen et al. ([51])): 1 ± 0.2 µM; Km ([5]; PHD2^181–426, ref Ehrismann et al. ([11])): 55 ± 1.1 µM; Km ([5]; PHD2^181–426, ref McNeill et al. ([10])): 25 ± 6 µM; Km ([5]; PHD2^181–426, ref Tarhonskaya et al. ([19])): 13 ± 2 µM; kcat (α-ketoglutarate titration) [3]: 0.0717 ± 0.005 s⁻¹

From paper PMC7961094 (The Journal of Biological Chemistry, 2021)
